On to `Cc1cccc2c1sc1nc(C(F)(F)F)nn12`, for which the melting point (usually the temperature, or range, at which the solid turns liquid) was in the range of 80 to 81 °C.
The compound `COCC1CCN(c2ccc(C#N)c3ccccc23)CC1` had a melting point of 96 to 97 °C.
For the compound `COC(=O)c1cccc(-c2nc(-c3cccc(OC(F)(F)F)c3)cs2)c1`, the melting point was in the range of 84 to 85 °C.
For `ClCc1ccc2ccc3cccc4ccc1c2c34`, the melting point was in the range of 146 to 148 °C.
With `N#Cc1ccc(C=C2CCNC2=O)cc1` the figure was 260 °C.
On to `COc1ccc2c(-c3ccc(Cl)cc3)noc2c1`, for which the melting point lay in the range of 148 to 149 °C.
For `O=[N+]([O-])c1cc(I)cc(CF)c1` the value was 50.5 to 51.5 °C; for `CN(N=C(Cl)c1c(Cl)cccc1Cl)S(=O)(=O)c1ccccc1`, 103 to 104 °C.
For `CC(C)(CO)NC(=O)c1nn(-c2ccc(F)cc2)c2c1C1CCC2CC1`, the melting point is 165 to 168 °C.
`CCN1c2ncccc2C(=O)Nc2c(C)cc(N3CCCC(CO)C3)nc21` (stereo not given) displayed a melting point of 194 to 197 °C.
The compound `O=C(NCCCc1ccncc1)N(CCC12CC3CC(CC(C3)C1)C2)Cc1cccs1` came in with a melting point of 142 to 144 °C.
On to `O=C(NCC12CC3CC(CC(C3)C1)C2)c1cc(-c2cc(F)ccc2C(=O)O)ccc1Cl`, for which the melting point lay in the range of 120 to 124 °C.
`CCCCCCNC(=O)c1ccc(N2N=C(C)C(=CNc3ccccc3CC)C2=O)cc1` returned a melting point of 62.1 °C.
Regarding `Oc1cccc(Oc2nnc(Cc3ccncc3)c3ccccc23)c1`, the melting point was in the range of 206 to 207 °C.
`CCOc1ccccc1C(=O)Nc1ccc(C(=O)N2Cc3cccn3Cc3ccccc32)cc1`: the melting point lay in the range of 160 to 176 °C.
`CC(C)Nc1nc(NN)nc(Cl)c1-c1c(F)cc(F)cc1F`: the melting point is 143 to 150 °C.
Consider `Cc1csc(-c2nc(-c3ccc(=O)n(C(C)C)n3)c(-c3ccccc3)nc2N)n1`, for which the melting point is 238 to 240 °C.
Regarding `CC(C)(C)OC(=O)COc1cc(NC(=O)OC(C)(C)C)c([N+](=O)[O-])cc1-c1ccc(F)cc1`, the melting point was in the range of 92 to 93 °C.
Compound `Nc1cccc(Oc2ccc(Cl)nn2)c1` gave a melting point of 76 to 77 °C.
As for `CC1=C(C(=O)OC(C)(C)C)C(c2ccccc2)C(C(=O)OC(C)(C)C)=C(C)N1`, the melting point was 187 to 188 °C.
For `COc1ccc2c(c1)-c1c(nn(-c3ccccn3)c1O)CC2` the value was 116 to 117 °C.
`CC(C)CC(NC(=O)C1CCCCC1NC(=O)OCc1ccccc1)C(N)=O` (stereo not given) showed a melting point of 188 to 190 °C.
Regarding `O=C(c1ccc(Br)cc1F)N1CCN(c2ccncc2)CC1`, the melting point is 125 to 126 °C.
In turn, `Fc1ccc([C@H]2CC[C@H](N3CCN(Cc4ccccc4)CC3)CC2)cc1` came in with a melting point of 106 °C.
Compound `N#CCCCc1ccccc1CC1C(=O)CCCC1=O` gave a melting point of 143 °C.
For `Clc1ccccc1-c1nc(Cl)n(-c2ccccc2Cl)n1` the value was 95.5 °C.
In the case of `Cc1ccccc1CC(=NC#N)NC(NC(=O)Cc1cccc2ccccc12)C(C)(C)C` (stereo not given), the melting point was in the range of 97 to 100 °C.
`O=C(NCCN1CCN=C1c1ccccn1)Nc1ccc(C(=O)O)cc1` gave a melting point of 220 to 223 °C.
The compound `O=C(Nc1ccc(F)cc1O)c1cc(Cl)c(O)c(Cl)c1` registered a melting point of 223 to 224 °C.
Compound `CC1(C)c2cc(OS(C)(=O)=O)ccc2OC1N1CCCCC1` (stereo not given) displayed a melting point of 97 to 98 °C.
Take `O=C(O)CCCC#CCC1=CC(O)CC1=O` (stereo not given): the melting point fell in the range of 65 to 71 °C.
In turn, `NS(=O)(=O)c1cc2cc(C(=O)NCC(O)CO)sc2s1` (stereo not given) had a melting point of 117 to 118 °C.
`O=C(O)CCc1oc(N2CCCC2)nc1-c1ccc(Cl)cc1` yielded a melting point of 199 to 200 °C.
Compound `Cn1ncc(N(CCCO)Cc2ccccc2)c(Cl)c1=O` displayed a melting point of 94 to 95 °C.
With `CC(=O)Nc1cc(-c2c(-c3cccc(C)c3)nc3ccc(Cl)nn23)ccn1` the figure was 228 to 229 °C; with `COc1nc(-c2ccccc2F)c2ccsc2n1`, 175 to 176 °C; with `COc1cc(N2CCC(N3CCCN(CCO)CC3)CC2)ccc1Nc1ncc2ccc(-c3ccccc3N(C)S(C)(=O)=O)n2n1`, 91 to 104 °C.
For `NC(=O)[C@@H]1CCCN1C(=O)CNP(=O)(Cc1ccccc1)Cc1ccccc1` the value was 91 to 95 °C.
With `Fc1ccc2c(c1)nc(Cl)c1nnc(C(F)(F)F)n12`, the melting point is 135 to 138 °C.
Compound `O=C(Nc1cccc(Cc2nnn[nH]2)c1)C(F)(F)C(F)(F)C(F)(F)F` yielded a melting point of 148 to 151 °C.
For `FC(F)(F)c1nnnn1-c1cccc2ccccc12` the value was 108 °C; for `FC(F)(F)c1ccc(-c2cc(C(F)(F)F)n3ncc(-c4nc(-c5cccnc5)no4)c3n2)cc1`, 199 °C.
Compound `CCCCOC(=O)Nc1nc(C(=NOC2CCCC2)C(=O)OC)ns1` had a melting point of 115 to 118 °C.
For the compound `CC(C)OC(=O)NC1(c2ccccc2Cl)CCCCC1=O` (stereo not given), the melting point lay within 124 to 126 °C.
With `CC(C)N1CC(OCC2CC2)(C(F)(F)F)c2cc(Cl)ccc2NC1=O` (stereo not given) the figure was 170 °C; with `CC(Cl)(Cl)C(NC(=O)c1cccc(Cl)c1)NC(=NC#N)Nc1cccc(F)c1` (stereo not given), 179 to 181 °C.
With `COc1cc(O)c(C(=O)C=Cc2ccc(Cl)cc2)c(OC)c1` the figure was 167 °C; with `COc1cc(C(=O)N(C(C)C)C2CCCCC2)ccc1CN(C(=O)CCl)c1cccnc1O`, 127 to 129 °C.
With `c1cc(-c2cnn3cc(-c4ccc(OCCN5CCOCC5)cc4)cnc23)cs1` the figure was 149 to 151 °C; with `O=Cc1c[nH]c2ccc(-c3ccc4[nH]cnc4c3)cc12`, greater than 280 °C; with `COc1ccc(CNc2c(-c3cc(Cl)ccc3O)c3cc(C(F)(F)F)ccc3[nH]c2=O)cc1`, 103 to 106 °C.
As for `CC(NC(=O)Cc1cc(F)cc(F)c1)C(=O)NC1C(=O)NC(C)c2ccccc21` (stereo not given), the melting point lay within 205 to 206 °C.
Turning to `CC(C)(COc1ccc(CNC(=O)C2Cc3ccccc3N2S(=O)(=O)c2ccc(-c3ccccc3C(F)(F)F)cc2)cc1)C(=O)O` (stereo not given), the melting point fell in the range of 98 to 105 °C.
On to `CSc1c[nH]c2cccc([N+](=O)[O-])c12`, for which the melting point lay in the range of 123 to 124 °C.
Take `OCC(CO)SCc1ccc(Cl)cc1`: the melting point lay in the range of 70 to 75 °C.
`Cc1cc2c(cc1C(=O)CO)C(C)(C)CC(C)C2(C)C` (stereo not given) came in with a melting point of 81 to 82 °C.
For `COc1cc(COc2ccccc2CC(=O)O)ccc1OCc1nc(-c2ccccc2)oc1C` the value was 165 to 166 °C; for `Cc1cn(C2CCCCC2)c(=O)nc1NS(=O)(=O)c1ccc(N)cc1`, 203 to 206 °C.
For `COCOc1ccc(-c2ccc3c(c2)C(C)(C)CCC3(C)C)cc1-c1ccc(C(=O)O)cc1` the value was 137 to 140 °C.
For `Fc1ccc2c(c1)OCc1c(-c3noc(C4CC4)n3)ncn1-2` the value was 182 to 184 °C; for `CC(C)(C)OC(=O)ON=C(C#N)c1ccc(Cl)cc1`, 91 to 92 °C; for `CCc1cc(=O)c(C(=O)c2ccccc2)c(C)[nH]1`, 169 to 170 °C.
`COc1cccc(OC)c1/C=C/S(=O)(=O)CS(=O)(=O)/C=C/c1c(OC)cccc1OC` displayed a melting point of 118 to 120 °C.
Take `CN(C)C(=O)c1cccnc1SCc1ccccc1`: the melting point was 61 to 63 °C.
With `O=C1N(CO)OCCN1c1ccc(Cl)c(Cl)c1` the figure was 134 °C; with `CN1CCCC1=C(C#N)C(=O)c1ccc(Cl)cc1`, 115 °C.
Take `C/C(=C(\C#N)C(N)=S)N1CCCCCC1`: the melting point is 158 to 161 °C.
Turning to `CC(=O)c1ccc(CCNS(=O)(=O)c2ccc(F)cc2)cc1`, the melting point fell in the range of 106 to 107 °C.
Take `CCOCc1cc2ccccc2oc1=Nc1ccccc1`: the melting point was in the range of 71 to 72 °C.
Compound `COCCOC(=O)Nc1cccc(C)c1CCl` came in with a melting point of 100 to 102 °C.
On to `N#CCc1nc(N)nc(N)c1-c1ccc(Cl)cc1Cl`, for which the melting point lay within 249 to 251 °C.
The compound `CC(C)(C)C(NC(=O)c1cccc(-c2ccccc2)c1)Nc1c(Nc2cccnc2)c(=O)c1=O` (stereo not given) yielded a melting point of 240 to 241 °C.
For `CCN(CC)C(=O)Cc1c(-c2ccc(Cl)cc2)nc2c(C)cc(C)nn12` the value was 162 to 165 °C; for `Cc1nc(CCO)c2n1-c1ccc(Cl)cc1C(c1ccccc1Cl)=NC2`, 170 to 171 °C.
For the compound `Cc1c(=O)n(Cc2ccccc2)c(=O)n2cc(C(=O)NCc3ccc(Cl)c(Cl)c3)sc12`, the melting point lay in the range of 180 to 182 °C.
Compound `N#Cc1ccc(NCCc2[nH]c3c(cnc4cc(Cl)ccc43)c2C=O)cc1` gave a melting point of 203 to 206 °C.
For `CN(C)c1ccc(NC(=O)N(CC(C)(C)C)C[C@H]2CC[C@H](CN(CC(C)(C)C)C(=O)Nc3ccc(N(C)C)cc3)CC2)cc1` the value was 178 to 181 °C; for `Cn1c2c(c3ccccc31)OCC2=O`, 113 to 116 °C; for `O=C1CCCc2c1c1cccc(Cl)c1n2Cc1ccc(F)cc1`, 166 °C.
As for `CC(C)(C)C(CO)NC(=O)C(CC(=O)O)N1C=CN(c2ccc(-c3ccccc3)cc2)C1` (mixture of isomers), the melting point lay within 145 to 150 °C.
For `O=C1Nc2ccccc2N(C(=O)C2CC2)c2cscc21`, the melting point was in the range of 245 to 247 °C.
Consider `CCOC(=O)C(CC(=O)O)(C(=O)OCC)n1cccc1`, for which the melting point lay in the range of 93 to 94 °C.
With `CCC(=O)N(CC)c1cccc(-c2ccnc3c(C(=O)c4ccco4)cnn23)c1` the figure was 165 to 167 °C; with `CCOC(=O)COc1cccc2c1C[C@@H](NCc1ccccc1)[C@H](O)C2` (relative stereo), 93 to 97 °C.
With `CC(C)(C)OC(=O)Nc1cc(Cl)c(I)cc1[N+](=O)[O-]` the figure was 82 to 84 °C; with `C=CCN1CCCCNC1=C[N+](=O)[O-]`, 82 to 83 °C.
Regarding `Cc1nc2cnccc2n1-c1ccc(CO)cc1`, the melting point was in the range of 154 to 156 °C.
Compound `CCNC(=O)c1c(Cl)cccc1[Si](C)(C)C(C)(C)C` showed a melting point of 140 to 142 °C.
In turn, `CC(C)OC(CC#N)=NC#N` yielded a melting point of 66.5 °C.
Turning to `Cc1cn(C)cc(-c2cccc(C(F)(F)F)c2)c1=O`, the melting point is 130 to 131 °C.

The values are drawn from a melting point compilation (Tetko et al.; mined from patent text by program, amines drawn as free bases though some values may be those of a salt).
